Source: patent US20220370381A1 (priority 2016, published 2022)
Where a chain is given by its changes, count along the chain named. Like-named read-outs stand apart in the source and are kept apart here.

Assays:
[1] = target: Serotonin 5-HT2B (Human recombinant) (Homo sapiens, UniProt P41595); assay: Competitive radioligand binding assay, serotonin 5-HT2B
serotonin 5-HT1A = target: T1, serotonin 5-HT1A (Rattus norvegicus, UniProt P19327); assay: Competitive radioligand binding assay, serotonin 5-HT1A
T1 construct: serotonin 5-HT1A (rat cerebral cortex); from tissue; host or cells: rat cerebral cortex
T1 sequence (P19327 1-422): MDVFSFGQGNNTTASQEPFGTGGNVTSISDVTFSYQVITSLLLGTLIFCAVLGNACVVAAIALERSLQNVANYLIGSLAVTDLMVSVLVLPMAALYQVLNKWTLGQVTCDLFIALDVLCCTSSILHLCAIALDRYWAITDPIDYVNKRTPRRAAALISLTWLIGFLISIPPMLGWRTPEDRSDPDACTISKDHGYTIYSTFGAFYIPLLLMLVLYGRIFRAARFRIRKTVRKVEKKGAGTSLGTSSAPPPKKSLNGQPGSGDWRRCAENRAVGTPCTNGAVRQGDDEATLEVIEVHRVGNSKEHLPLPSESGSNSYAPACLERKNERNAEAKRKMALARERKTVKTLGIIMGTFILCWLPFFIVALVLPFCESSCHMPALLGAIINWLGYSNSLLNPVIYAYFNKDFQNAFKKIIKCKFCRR

Sigma 1 [2] = target: T2, Sigma 1 (Cavia porcellus, UniProt Q60492); assay: Sigma-1 receptor tissue bioassay, guinea pig vas deferens, agonist activity (twitch contraction); parameters: Segments of guinea pig vas deferens were suspended in 20-ml organ baths; from tissue; host or cells: guinea pig vas deferens; conditions: field-stimulated guinea pig vas deferens, compound alone
[3] = target: T3, Human muscarinic M1 receptor (Homo sapiens, UniProt P11229); format: cell-based; conditions: acetylcholine-induced Ca2+ mobilization, CHO cells
T3 construct: expressed in transfected cells; host or cells: CHO
T3 sequence (P11229 1-460): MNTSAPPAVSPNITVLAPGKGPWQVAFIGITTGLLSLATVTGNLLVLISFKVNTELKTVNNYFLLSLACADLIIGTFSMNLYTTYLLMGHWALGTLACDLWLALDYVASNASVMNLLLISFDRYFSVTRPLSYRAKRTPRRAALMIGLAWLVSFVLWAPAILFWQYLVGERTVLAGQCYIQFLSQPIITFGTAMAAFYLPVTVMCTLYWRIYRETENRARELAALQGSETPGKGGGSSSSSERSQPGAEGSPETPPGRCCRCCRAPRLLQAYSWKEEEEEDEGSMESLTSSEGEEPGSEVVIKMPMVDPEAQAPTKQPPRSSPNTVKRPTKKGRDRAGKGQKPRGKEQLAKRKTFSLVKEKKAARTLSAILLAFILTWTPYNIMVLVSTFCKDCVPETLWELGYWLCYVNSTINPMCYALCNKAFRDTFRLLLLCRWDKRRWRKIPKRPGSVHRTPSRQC
Protocol: After plating, a fluorescent probe (Fluo4 NW, Invitrogen), mixed with probenicid in HBSS buffer (Invitrogen) complemented with 20 mM Hepes (Invitrogen) (pH 7.4), was added into each well and equilibrated with the cells for 60 min at 37° C., followed by a second incubation for 15 min at 22° C.
Thereafter, the assay plates were positioned in a microplate reader (CellLux, PerkinElmer). After a 5-min incubation, 3 nM acetylcholine was added to all except the basal control wells to a total reaction volume of 100 uL, and changes in fluorescence intensity which vary proportionally to the free cytosolic Ca2+ ion concentration, were measured.
The stock solutions were then diluted to [10×] in HBSS and 0.1% BSA just prior to use. Maximum tolerable DMSO concentration was 0.3%.

[4] = target: T4, human β-2 adrenergic receptor (Homo sapiens, UniProt P07550); assay: β-2 adrenergic receptor antagonist assay, agonist-induced cAMP production (HTRF); format: cell-based; parameters: expressed in transfected cells; host or cells: HEK-293; conditions: inhibition of isoproterenol-induced cAMP production
Protocol: Transfected HEK-293 cells expressing human β-1 adrenergic receptor, human β-2 adrenergic receptor, and human β3 adrenergic receptor, respectively, were prepared using cloned human cDNA. See H FRIELLE, T., COLLINS, S., DANIEL, K. W., CARON, M. G., LEFKOWITZ, R. J., KOBILKA, B. K. (1987), Cloning of the cDNA for the human beta1-adrenergic receptor, Proc. Natl. Acad. Sci. U.S.A., 84,7920, and BAKER, J. G. (2005) The selectivity of Beta-adrenoreceptor antagonists at the human Beta1, Beta2 and Beta3 adrenoreceptor, Brit.
Transfected cells were suspended in HBSS buffer (Invitrogen) complemented with 20 mM HEPES (pH 7.4) and 500 μM IBMX. […] The cells were then distributed in 96 well microplates (see FIG. 15 for plating densities).
After plating, the cells were induced by adding reference agonist. See FIG. 15 for reference agonists and concentrations used for each assay. […] The cells were then incubated 30 minutes at room temperature.
Subsequently, the cells were lysed and a fluorescence acceptor (D2-labeled cAMP) and a fluorescence donor (anti-cAMP antibody labeled with europium cryptate) were added to the wells.
Standard reference antagonists were tested in each experiment at several concentrations to generate a concentration-response curve from which its IC50 value is calculated.
EC50 values (concentration producing a half-maximal response) and IC50 values (concentration causing a half-maximal inhibition of the control agonist response) were determined by non-linear regression analysis of the concentration-response curves generated with mean replicate values using Hill equation curve fitting: […]
For the antagonists, the apparent dissociation constants (KB) were calculated using the modified Cheng Prusoff equation:
KB=IC50/[1+(A/EC50A)], where

Swiss OF-1 mice [5] = conditions: female BKTO mice, O'Neill & Conway (2001); cited from earlier work
Swiss OF-1 mice [6] = assay: Forced swim test (FST) in mice; conditions: acute IP injection, lower doses not active
rats = conditions: cited from earlier work
Sigma 1 [7] = target: T2, Sigma 1; assay: Competitive radioligand binding assay, Sigma 1; parameters: species or system Guinea pig
[8] = target: Serotonin 5-HT7 (Human recombinant) (Homo sapiens, UniProt P34969); assay: Competitive radioligand binding assay, serotonin 5-HT7
hNav1.5 = hNav1.5 (Homo sapiens, UniProt Q14524); assay: Ion channel profiling, IonFlux HT automated patch clamp, hNav1.5
Swiss OF-1 mice [9] = assay: Step-through passive avoidance, dizocilpine-induced deficit; format: in vivo, mouse; conditions: IP; 0.1 mg/kg not active
Swiss OF-1 mice [10] = assay: Spontaneous alternation in the Y-maze, dizocilpine-induced deficit; format: in vivo, mouse; conditions: IP; 0.1 mg/kg not active
DBA/1 mice = conditions: comparator value, no test described; cited from earlier work
Sigma non-selective = assay: Competitive radioligand binding assay, sigma non-selective; parameters: species or system Guinea pig
Na channel = system: T5, Na channel; assay: Competitive radioligand binding assay, Na channel; parameters: species or system Rat
T5 construct: other: test article 1×10^−6 and 1×10^−5 mol/L; rat brain

Muscarinic M1 = target: T6, Muscarinic M1 (Rattus norvegicus, UniProt P08482); assay: Competitive radioligand binding assay, muscarinic M1
T6 construct: Muscarinic M1 (Rat cerebral cortex); from tissue; host or cells: rat cerebral cortex
T6 sequence (P08482 1-460): T3 sequence (P11229 1-460) with A5V, T254S, P309S, R320K, A337G, I413V

[11] = system: T7, β-Adrenergic (Non-selective); assay: Competitive radioligand binding assay, β-adrenergic (non-selective); parameters: species or system Rat
T7 construct: β-1 adrenergic; other: test article 1×10^−6 and 1×10^−5 mol/L; rat brain

[12] = target: T4, human β-2 adrenergic receptor; assay: Competitive radioligand binding assay, β2-adrenergic
Sigma 1 [13] = target: T2, Sigma 1; assay: Sigma-1 receptor tissue bioassay, guinea pig vas deferens, antagonist activity ((+)SKF-10047-induced response); parameters: Segments of guinea pig vas deferens were suspended in 20-ml organ baths; from tissue; host or cells: guinea pig vas deferens; conditions: field-stimulated guinea pig vas deferens, (+)SKF-10047 100 μM
[14] = Example 3, Ki=IC50/(1+L/Kd), IC50 expressed in mol/L, read-out: Ki, 5-HT1A
[15] = Example 2, seven concentrations
[16] = test article 1×10^−6 and 1×10^−5 mol/L, rat brain
[17] = test article 1×10^−6 and 1×10^−5 mol/L, rat cerebral cortex

T4 sequence (P07550 whole entry): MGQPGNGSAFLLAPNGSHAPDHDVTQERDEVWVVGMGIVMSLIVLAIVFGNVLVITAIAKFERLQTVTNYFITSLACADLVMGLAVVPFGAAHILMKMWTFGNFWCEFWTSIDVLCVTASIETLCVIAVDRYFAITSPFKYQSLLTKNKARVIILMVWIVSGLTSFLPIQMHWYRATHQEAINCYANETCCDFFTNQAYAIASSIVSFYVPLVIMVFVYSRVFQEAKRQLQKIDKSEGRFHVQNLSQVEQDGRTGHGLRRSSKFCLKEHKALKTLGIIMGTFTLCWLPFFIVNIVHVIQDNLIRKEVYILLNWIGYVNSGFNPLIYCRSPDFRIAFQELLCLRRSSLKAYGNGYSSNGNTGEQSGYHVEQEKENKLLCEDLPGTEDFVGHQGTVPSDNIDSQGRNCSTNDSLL
T2 sequence (Q60492 whole entry): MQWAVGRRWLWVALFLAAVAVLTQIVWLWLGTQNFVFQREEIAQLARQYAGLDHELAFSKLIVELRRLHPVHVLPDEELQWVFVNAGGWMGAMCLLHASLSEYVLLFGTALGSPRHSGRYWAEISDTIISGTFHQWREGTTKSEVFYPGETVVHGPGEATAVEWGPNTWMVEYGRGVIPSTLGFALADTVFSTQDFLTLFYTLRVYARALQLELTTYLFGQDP
Chain of Serotonin 5-HT2B (Human recombinant) (P41595 whole entry): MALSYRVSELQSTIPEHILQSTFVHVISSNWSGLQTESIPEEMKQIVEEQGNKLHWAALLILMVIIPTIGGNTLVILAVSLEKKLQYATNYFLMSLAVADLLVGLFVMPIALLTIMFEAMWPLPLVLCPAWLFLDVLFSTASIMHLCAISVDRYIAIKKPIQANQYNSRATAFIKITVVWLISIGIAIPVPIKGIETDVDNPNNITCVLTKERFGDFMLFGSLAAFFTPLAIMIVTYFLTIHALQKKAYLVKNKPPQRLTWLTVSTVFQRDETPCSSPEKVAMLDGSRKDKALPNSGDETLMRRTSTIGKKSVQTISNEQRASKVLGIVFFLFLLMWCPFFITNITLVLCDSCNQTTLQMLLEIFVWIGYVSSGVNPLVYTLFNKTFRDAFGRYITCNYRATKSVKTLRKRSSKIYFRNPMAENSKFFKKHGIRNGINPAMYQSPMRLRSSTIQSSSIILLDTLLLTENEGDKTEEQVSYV
Chain of Serotonin 5-HT7 (Human recombinant) (P34969 whole entry): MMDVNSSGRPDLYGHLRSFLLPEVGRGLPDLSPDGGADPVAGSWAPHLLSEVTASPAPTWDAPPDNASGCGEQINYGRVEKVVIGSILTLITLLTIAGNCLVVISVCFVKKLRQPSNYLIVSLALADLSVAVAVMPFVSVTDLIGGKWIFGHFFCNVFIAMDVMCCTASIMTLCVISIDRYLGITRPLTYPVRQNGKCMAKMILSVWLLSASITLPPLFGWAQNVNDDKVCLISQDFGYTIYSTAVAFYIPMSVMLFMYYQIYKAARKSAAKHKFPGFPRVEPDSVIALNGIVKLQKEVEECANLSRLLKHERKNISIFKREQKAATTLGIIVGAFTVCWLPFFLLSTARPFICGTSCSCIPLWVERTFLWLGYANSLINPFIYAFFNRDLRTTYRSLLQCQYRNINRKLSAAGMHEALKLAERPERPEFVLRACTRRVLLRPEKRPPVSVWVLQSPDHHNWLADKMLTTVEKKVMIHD
Chain of hNav1.5 (Q14524 whole entry): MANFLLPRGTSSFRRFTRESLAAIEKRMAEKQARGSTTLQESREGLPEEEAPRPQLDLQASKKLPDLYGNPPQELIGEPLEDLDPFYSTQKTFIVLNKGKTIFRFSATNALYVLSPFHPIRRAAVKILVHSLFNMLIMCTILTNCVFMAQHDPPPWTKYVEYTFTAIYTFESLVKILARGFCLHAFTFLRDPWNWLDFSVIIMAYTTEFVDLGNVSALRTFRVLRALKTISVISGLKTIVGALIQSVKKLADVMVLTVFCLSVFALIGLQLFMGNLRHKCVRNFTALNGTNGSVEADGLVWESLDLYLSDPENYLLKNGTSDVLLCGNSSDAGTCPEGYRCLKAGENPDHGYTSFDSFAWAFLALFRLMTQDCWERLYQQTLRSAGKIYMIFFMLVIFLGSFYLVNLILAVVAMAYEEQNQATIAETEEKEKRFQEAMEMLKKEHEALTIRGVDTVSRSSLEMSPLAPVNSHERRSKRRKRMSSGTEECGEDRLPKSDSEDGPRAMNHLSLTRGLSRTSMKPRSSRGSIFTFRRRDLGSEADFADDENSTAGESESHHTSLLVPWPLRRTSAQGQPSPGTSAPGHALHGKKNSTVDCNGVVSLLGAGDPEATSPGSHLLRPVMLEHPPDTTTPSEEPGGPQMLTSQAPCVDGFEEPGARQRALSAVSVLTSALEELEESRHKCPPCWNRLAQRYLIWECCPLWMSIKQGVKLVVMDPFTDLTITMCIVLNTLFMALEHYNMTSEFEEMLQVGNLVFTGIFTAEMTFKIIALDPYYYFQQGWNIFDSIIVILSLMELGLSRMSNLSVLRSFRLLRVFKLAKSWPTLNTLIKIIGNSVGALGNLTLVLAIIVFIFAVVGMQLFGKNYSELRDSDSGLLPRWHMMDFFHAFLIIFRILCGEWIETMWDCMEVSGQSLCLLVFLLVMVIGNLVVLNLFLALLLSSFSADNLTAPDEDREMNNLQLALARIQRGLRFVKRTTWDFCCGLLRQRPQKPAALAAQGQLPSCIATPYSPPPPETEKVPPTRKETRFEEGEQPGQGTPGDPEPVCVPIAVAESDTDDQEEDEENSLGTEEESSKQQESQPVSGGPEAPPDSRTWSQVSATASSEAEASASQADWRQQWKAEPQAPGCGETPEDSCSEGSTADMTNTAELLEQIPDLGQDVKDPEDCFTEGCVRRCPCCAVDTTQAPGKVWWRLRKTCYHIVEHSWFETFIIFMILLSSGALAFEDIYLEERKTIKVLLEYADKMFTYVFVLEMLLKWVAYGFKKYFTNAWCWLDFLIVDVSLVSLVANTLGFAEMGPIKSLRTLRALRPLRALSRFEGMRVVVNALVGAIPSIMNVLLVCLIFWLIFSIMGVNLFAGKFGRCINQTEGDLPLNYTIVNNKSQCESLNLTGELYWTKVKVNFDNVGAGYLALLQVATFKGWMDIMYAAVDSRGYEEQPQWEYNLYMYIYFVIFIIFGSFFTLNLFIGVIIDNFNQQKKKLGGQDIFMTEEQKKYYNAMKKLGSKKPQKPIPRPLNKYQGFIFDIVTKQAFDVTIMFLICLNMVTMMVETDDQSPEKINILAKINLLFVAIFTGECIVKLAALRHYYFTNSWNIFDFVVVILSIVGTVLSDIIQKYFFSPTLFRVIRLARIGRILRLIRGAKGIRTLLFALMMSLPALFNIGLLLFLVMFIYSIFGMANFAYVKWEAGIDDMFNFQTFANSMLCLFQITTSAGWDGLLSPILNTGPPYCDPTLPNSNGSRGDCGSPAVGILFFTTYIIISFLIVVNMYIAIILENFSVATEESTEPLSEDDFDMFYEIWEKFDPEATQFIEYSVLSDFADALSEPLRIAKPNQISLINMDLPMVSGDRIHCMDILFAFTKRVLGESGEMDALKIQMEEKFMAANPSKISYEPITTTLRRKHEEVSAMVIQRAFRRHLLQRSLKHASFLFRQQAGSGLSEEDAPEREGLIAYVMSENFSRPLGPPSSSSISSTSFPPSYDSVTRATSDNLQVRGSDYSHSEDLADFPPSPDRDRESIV

Q: With `CC(N)Cc1cccc(C(F)(F)F)c1` (single isomer, unassigned; (+)) [(+)norfenfluramine] as the compound, how does the Ki [1] read?
A: 242 nM

Q: And the Ki (serotonin 5-HT1A; [14])?
A: 1140 nM

Q: And the “effect on twitch contraction amplitude” value (Sigma 1 [2])?
A: concentration-dependent decrease

Q: Which Ki [1] does the source give for `CC(N)Cc1cccc(C(F)(F)F)c1` (single isomer, unassigned; (-)) [(−)norfenfluramine] here?
A: 1200 nM

Q: And the “antagonist activity at the muscarinic M1 receptor” value [3]?
A: some antagonist activity

Q: What about the “antagonist activity at the beta-2 adrenergic receptor” value [4] of the same compound?
A: antagonist activity

Q: What about the Ki (serotonin 5-HT1A; [14]) of the same compound?
A: 409 nM

Q: And the “effect on twitch contraction amplitude” value (Sigma 1 [2])?
A: more complex behavior

Q: For `CCN[C@@H](C)Cc1cccc(C(F)(F)F)c1` [(+)fenfluramine], which “antagonist activity at the beta-2 adrenergic receptor” value [4] is on record?
A: antagonist activity

Q: For `Br.CCCN(CCC)C1CCc2cccc(O)c2C1` (centres unmarked) [Compound 8-OH-DPAT, 7-(Dipropylamino)-5,6,7,8-tetrahydronaphthalen-1-ol hydrobromide], which “active dose in forced swim test published previously” value (Swiss OF-1 mice [5]) is on record?
A: 0.25 to 1 mg/kg

Q: And the “dose reducing immobility duration in the FST” value (Swiss OF-1 mice [6])?
A: 3 mg/kg

Q: What about the “active dose in forced swim test published previously” value (rats; male CD-COBS rats, Cervo & Samanin (1987)) of the same compound?
A: 0.25 to 0.5 mg/kg

Q: What about the “active dose in forced swim test published previously” value (rats; male Sprague-Dawley rats, Singh & Lucki (1993)) of the same compound?
A: 0.5 mg/kg

Q: What does the source list for `CCN[C@@H](C)Cc1cccc(C(F)(F)F)c1` [Dexfenfluramine]?
A: IC50 (Sigma 1 [7]): 125 nM; Ki (Sigma 1 [7]): 109 nM; IC50 [8]: 7520 nM; Ki [8]: 7100 nM; IC50 (hNav1.5): > 30000 nM; IC50 (serotonin 5-HT1A): 1290 nM; Ki (serotonin 5-HT1A): 711 nM

Q: With `CC[C@@](C/C=C/c1ccccc1)(c1ccccc1)N(C)CC1CC1.Cl` [Igmesine, (R)-(+)-N-Cyclopropylmethyl-α-ethyl-N-methyl-α-[(2E)-3-phenyl-2-propenyl)benzenemethanamine hydrochloride] as the compound, how does the “dose reducing immobility duration in the FST” value (Swiss OF-1 mice [6]) read?
A: 30 mg/kg

Q: With `Cl.O=C(OCCN1CCOCC1)C1(c2ccccc2)CCCCC1` [PRE-084, 2-(4-Morpholinethyl)-1-phenylcyclohexanecarboxylate hydrochloride] as the compound, how does the “dose attenuating dizocilpine-induced deficit in passive avoidance response (minimal active dose)” value (Swiss OF-1 mice [9]) read?
A: 0.3 mg/kg

Q: What about the “dose attenuating dizocilpine-induced deficit in spontaneous alternation” value (Swiss OF-1 mice [10]) of the same compound?
A: 0.3 mg/kg

Q: With `CNCCC(Oc1ccc(C(F)(F)F)cc1)c1ccccc1` (centres unmarked) [fluoxetine] as the compound, how does the “ED50, blockade of S-IRA (comparison value)” value (DBA/1 mice) read?
A: 22.2 mg/kg

Q: For `CC(N)Cc1cccc(C(F)(F)F)c1` (centres unmarked) [norfenfluramine], which “binding relative to positive controls” value (Sigma non-selective; [15]) is on record?
A: moderate binding

Q: And the “inhibition of receptor binding (tracer)” value (Sigma non-selective; test article 1×10^−6 and 1×10^−5 mol/L, guinea pig brain)?
A: significantly inhibit

Q: And the “binding relative to positive controls” value (Na channel; [15])?
A: moderate binding

Q: And the “inhibition of receptor binding (tracer)” value (Na channel; [16])?
A: significantly inhibit

Q: And the “binding relative to positive controls” value (Muscarinic M1; [15])?
A: moderate binding

Q: What about the “inhibition of receptor binding (tracer)” value (Muscarinic M1; [17]) of the same compound?
A: significantly inhibit

Q: And the “activity at the Nav1.5 ion channel” value (hNav1.5; patch clamp, 0.37-30 μM)?
A: weak antagonist

Q: And the “binding relative to positive controls” value ([11]; Example 2, seven concentrations, β-1 adrenergic)?
A: moderate binding

Q: What about the “inhibition of receptor binding (tracer)” value [11, 16] of the same compound?
A: significantly inhibit

Q: And the “antagonist activity at the beta-2 adrenergic receptor” value [4]?
A: some antagonist activity

Q: And the “binding relative to positive controls” value (serotonin 5-HT1A; [15])?
A: moderate binding

Q: And the “inhibition of receptor binding (tracer)” value (serotonin 5-HT1A; [17])?
A: significantly inhibit

Q: What about the “binding relative to positive controls” value [12, 15] of the same compound?
A: moderate binding

Q: What about the “inhibition of receptor binding (tracer)” value ([12]; test article 1×10^−6 and 1×10^−5 mol/L, human recombinant) of the same compound?
A: significantly inhibit

Q: And the “effect on twitch contraction amplitude” value (Sigma 1 [2]; listed as Racemic norfenfluramine)?
A: concentration-dependent decrease

Q: And the “effect on the (+)SKF-10,047-induced increase in twitch contraction amplitude” value (Sigma 1 [13])?
A: concentration-dependent inhibition

Q: Which “effect on the (+)SKF-10,047-induced increase in twitch contraction amplitude” value (Sigma 1 [13]) does the source give for `C[C@@H]1CN(CCCn2c3ccccc3c3ccccc32)C[C@H](C)N1` [rimcazole] here?
A: inhibited
